According to ChEMBL document CHEMBL3044683, “Antifeedant activities of tutin and 7-hydroxycoumarin acylation derivatives against Mythimna separata” (2012):

Tests used:
Mythimna separata [1] = assay: Antifeedant activity against third-instar larvae of Mythimna separata (Oriental armyworm) at 2 mg/ml applied on wheat leaf after 48 hr by non-choice leaf disk method relative to control; assay type: functional
Mythimna separata [2] = assay: Antifeedant activity against third-instar larvae of Mythimna separata (Oriental armyworm) at 2 mg/ml applied on wheat leaf after 24 hr by non-choice leaf disk method relative to control; assay type: functional

| SMILES | AFI (Mythimna separata [1]) [%] | AFI (Mythimna separata [2]) [%] |
| --- | --- | --- |
| O=C(Oc1ccc2ccc(=O)oc2c1)c1ccc(Cl)nc1 [7-(6-CHLORONICOTINOYLOXY)COUMARIN] | 37.9 | 45.3 |
| O=C(Oc1ccc2ccc(=O)oc2c1)c1ccc(Cl)cc1 [7-(4-CHLOROBENZOYLOXY)COUMARIN] | 17.5 | 9.2 |
| COc1ccc(C(=O)Oc2ccc3ccc(=O)oc3c2)cc1 [7-(4-METHOXYBENZOYLOXY)COUMARIN] | 35.4 | 32.3 |
| O=C(Oc1ccc2ccc(=O)oc2c1)c1ccc([N+](=O)[O-])cc1 [7-(4-NITROBENZOYLOXY)COUMARIN] | 10.8 | -7.5 |
| O=C(Oc1ccc2ccc(=O)oc2c1)c1cc([N+](=O)[O-])cc([N+](=O)[O-])c1 [7-(3,5-DINITROBENZOYLOXY)COUMARIN] | 49.1 | 46.7 |
| C=C(C)[C@H]1[C@H]2OC(=O)[C@@H]1[C@@]1(O)[C@H]3O[C@H]3[C@]3(CO3)[C@]1(C)[C@@H]2O [TUTIN] | 31.8 | 22.7 |
| C=C1CC[C@@H]2[C@](C)(CO)[C@H](O)CC[C@@]2(C)[C@@H]1C/C=C1/C(=O)OC[C@H]1O [ANDROGRAPHOLIDE] | 9.6 | 26.7 |
| O=c1ccc2ccc(O)cc2o1 [UMBELLIFERONE] | 17.3 | 25.4 |
| CS(=O)(=O)Oc1ccc2ccc(=O)oc2c1 [7-METHANESULFONYLOXYCOUMARIN] | 53.7 | 62.4 |
| C/C=C(\C)C(=O)O[C@H]1C[C@@H](OC(C)=O)[C@@]2(C(=O)OC)CO[C@H]3[C@@H](O)[C@@](C)([C@]45O[C@@]4(C)[C@@H]4C[C@H]5O[C@@H]5OC=C[C@@]54O)[C@H]4[C@]1(CO[C@]4(O)C(=O)OC)[C@@H]32 [AZADIRACHTIN A] | 43.8 | 37.3 |
| O=C(Oc1ccc2ccc(=O)oc2c1)c1ccc(Cl)cc1Cl [7-(2,4-DICHLOROBENZOYLOXY)COUMARIN] | 18.3 | 6.3 |
